Laboratory results reported in patent US20230057359A1, “NOVEL USE OF STEVIOL” (SUNTORY HOLDINGS LIMITED, priority 2019, published 2023).

What was measured:
[1] = system: normal human subcutaneous preadipocytes differentiated into adipocytes; assay: Cytotoxicity of steviol to adipocytes (WST-8 viable cell count); assay type: cell-based; conditions: for Relative viable cell count (%): 10 days, Control=100%
Procedure: 5×10^5 normal human subcutaneous preadipocytes (Cat. No. PT-5020, Lonza Group AG) were precultured for 6 days in a T75 flask using a growth medium (PBM-2 medium supplemented with 10% FBS, 2 mM L-glutamine, 50 μg/mL gentamycin, and 37 ng/mL amphotericin-B, Cat. No. PT-8002, Lonza Group AG) in a CO2 incubator (37° C., 5% CO2; the same holds true for the description below). The cells were detached using 0.25% trypsin-EDTA, seeded at 10,000 cells/100 μL/well in a 96-well plate using the growth medium, and cultured overnight in a CO2 incubator. On the next day, the medium was replaced with 100 μL of a differentiation medium (PBM-2 medium supplemented with 10% FBS, 2 mM L-glutamine, 50 μg/mL gentamycin, 37 ng/mL amphotericin-B, insulin, dexamethasone, indomethacin, and 3-isobutyl-1-methylxanthine (IBMX), Cat. No. PT-8002, Lonza Group AG: the same holds true for the description below) supplemented with varying concentrations of steviol (0.001, 0.01, 0.1, 1, 10 or 100 μg/mL, dissolved in 0.1% DMSO (final concentration)). The cells were cultured for 10 days in a CO2 incubator to induce their differentiation into adipocytes. On the fourth and seventh days after the differentiation induction, the medium was replaced with a fresh medium (100 μL) having the same composition as above. A vehicle control composed of a differentiation medium supplemented with 0.1% DMSO (final concentration) was used as a negative control. Viable cell count measurement was performed by the WST-8 method. Specifically, the medium of each well after culture was replaced with a differentiation medium (100 μL) supplemented with a 1/10 amount of viable cell count measurement reagent SF, and the cells were incubated in a CO2 incubator. 30 minutes later and 90 minutes later, absorbance (450 nm, reference wavelength: 630 nm) was measured using a plate reader (VARIOSKAN FLASH, Thermo Fisher Scientific Inc.), and absorbance difference per 60 minutes was regarded as a relative viable cell count (Control=100%).

[2] = system: normal human subcutaneous preadipocytes differentiated into adipocytes; assay: Fat accumulation test in adipocytes (oil red staining); assay type: cell-based; conditions: for Relative fat accumulation level (%): 10 days, DMSO=100%
Procedure: Normal human subcutaneous preadipocytes were precultured using the growth medium in the same manner as in Example 1. The cells were detached using 0.25% trypsin-EDTA, seeded at 10,000 cells/100 μL/well to a 96-well plate using a growth medium, and cultured overnight in a CO2 incubator. On the next day, the medium was replaced with 100 μL of a differentiation medium supplemented with varying concentrations of steviol (12.5, 25, 50, 100 or 200 μg/mL, dissolved in 0.1% DMSO (final concentration)). The cells were cultured for 10 days in a CO2 incubator to induce their differentiation into adipocytes. On the fourth and seventh days after the differentiation induction, the medium was replaced with a fresh medium (100 μL) having the same composition as above. A differentiation medium supplemented with 25 mM LiCl (Cat. No. SML0559, Sigma-Aldrich Co., LLC) was used as a positive control, and a differentiation medium supplemented with 0.1% DMSO (final concentration) was used as a negative control. Cells cultured in a growth medium were used as an untreated control (Untreated). The cells thus cultured were subjected to oil red staining. Specifically, the cells were washed twice with 100 μL of DPBS (Cat. No. 14190250, Thermo Fisher Scientific Inc.). Then, the cells were fixed (room temperature, 10 min) in 100 μL of a 10% formalin solution (Cat. No. 061-00416, FUJIFILM Wako Pure Chemical Corp.). The cells were washed twice with 100 μL of DPBS, then incubated for 1 minute in 100 μL of 60% 2-propanol (Cat. No. 166-04836, FUJIFILM Wako Pure Chemical Corp.) that replaced the medium, and stained for 15 minutes in 100 μL of an oil red staining solution (Cat. No. 00625, Sigma-Aldrich Co., LLC) that replaced the 2-propanol solution. The cells were washed once with 100 μL of 60% 2-propanol and washed twice with 100 μL of DPBS. Then, cell images were taken in 100 μL of DPBS. After subsequent replacement with 120 μL of 100% 2-propanol, oil red was extracted by incubation for 5 minutes, and 100 μL of the extracts was transferred to each well of a fresh 96-well plate. Absorbance (520 nm) was measured using a plate reader (VARIOSKAN FLASH, Thermo Fisher Scientific Inc.), and a relative fat accumulation level was calculated. Significant difference of differentiation non-induced group vs differentiation induced group (negative control group) was tested (two-tailed), and P<0.05 was regarded as having significant difference. Also, significant difference of negative control group vs steviol addition group/positive control group was tested (two-tailed) by the Dunnett test, and P<0.05 was regarded as having significant difference.

Compound: C=C1C[C@@]23CC[C@H]4[C@@](C)(CCC[C@@]4(C)C(=O)O)[C@@H]2CC[C@]1(O)C3 [Steviol, steviol]
- cytotoxicity to adipocytes (in words) ([1]; 100 μg/mL steviol): no particular cytotoxicity to be noted was found
- Relative viable cell count (%) ([1]; steviol 0.01 μg/mL): 101.8%
- Relative viable cell count (%) ([1]; steviol 0.1 μg/mL): 101.7%
- Relative viable cell count (%) ([1]; steviol 1 μg/mL): 95.0%
- Relative viable cell count (%) ([1]; steviol 10 μg/mL): 103.6%
- Relative viable cell count (%) ([1]; steviol 100 μg/mL): 93.1%
- fat accumulation in adipocytes (in words) ([2]; 12.5 to 200 μg/mL): suppressed fat accumulation in adipocytes in a concentration-dependent manner
- Relative fat accumulation level (%) ([2]; steviol 12.5 μg/mL): 98.3%
- Relative fat accumulation level (%) ([2]; steviol 25 μg/mL): 91.3%
- Relative fat accumulation level (%) ([2]; steviol 50 μg/mL): 80.7%
- Relative fat accumulation level (%) ([2]; steviol 100 μg/mL): 70.8%
- Relative fat accumulation level (%) ([2]; steviol 200 μg/mL): 40.0%
